What all share (type): biochemical
The subject of data set [1] is MPTP. In words: MPTP induced by phenylarsineoxide or ATR.
For data set [2], the system named is mitochondrial respiration. In words: Mitochondrial respiration (oxygen consumption). Conditions: at concentrations completely blocking MPTP. The protocol:
Isolated liver mitochondria (˜0.5 mg protein ml^−1) were incubated in a batch mode in the presence of 20 nM [^3H]TPP ([^3H]Tetraphenylphosphonium ([^3H]TPP, 24-29 Ci/mmol) from Amersham Biosciences, Switzerland) for 15 min at 25° C. Aliquots (100 μl) of the mixture were then distributed into 96-well plates containing 100 μl of the test compound and the incubation prolonged for 15 min at 25° C. Samples were then filtered through 0.3% (v/v) polyethyleneimmine-treated GF/B glass fiber filters using a 96-channel cell harvester and the filters washed twice with 1 ml of buffer. Fifty μl of MICROSCINT 40 (Packard) were then added to each well, before counting for radioactivity in a TopCount scintillation counter (Packard). Non-specific uptake was determined in the presence of 1 mM unlabeled TPP or 1 μM carbonylcianide-p-trifluoromethoxyphenyl hydrazone (FCCP). Mitochondrial oxygen consumption was measured polarographically at 25° C. using a Clark-type electrode.
Compounds found to inhibit MPTP where then counter-screened using uptake of the potentiometric probe [^3H]-TPP (Hoek, J. B., Nicholls, D. G. & Williamson, J. R. (1980) J. Biol. Chem. 255, 1458-1564) for determining in a semi-quantitative, but rapid way whether they interfered with mitochondrial respiration (e.g. protonophores). […]

A further data set concerns the target Cyp-D (Homo sapiens, UniProt P30405). In words: Cyp-D peptidyl prolyl cis-trans isomerase enzymatic activity. Conditions: at concentrations completely blocking MPTP.
For data set [3], the target named is T1, MPTP (Rattus norvegicus, UniProt Q9Z2L0).
T1 construct: other: n=2; glutamate/malate; other: glutamate/malate; 20 min; mean±SEM; unit not given; other: 300 nM; relieved by 50 μM Ub5
T1 sequence (Q9Z2L0 2-283): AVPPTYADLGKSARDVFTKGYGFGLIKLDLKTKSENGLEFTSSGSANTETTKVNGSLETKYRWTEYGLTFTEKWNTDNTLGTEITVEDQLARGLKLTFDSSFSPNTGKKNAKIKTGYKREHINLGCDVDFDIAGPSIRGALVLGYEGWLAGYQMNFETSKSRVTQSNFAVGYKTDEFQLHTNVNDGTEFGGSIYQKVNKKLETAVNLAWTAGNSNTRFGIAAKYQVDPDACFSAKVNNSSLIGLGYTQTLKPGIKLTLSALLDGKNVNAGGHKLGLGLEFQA
In words: Ca2+-induced swelling in rat brain mitochondria. As to conditions: 80 μM CaCl2; potency in the range of liver mitochondria. As for the experimental part: (§1) The effect of Spiro[cyclopentane-1,5′-[5H]dibenzo[a,d]cyclohepten]-2-one,10′,11′-dihydro-3-methylene- at inhibiting MPTP was also investigated in mitochondria isolated from rat forebrain. […] Due to the difficulties mentioned above, the effect of Spiro[cyclopentane-1,5′-[5H]dibenzo[a,d]cyclohepten]-2-one,10′,11′-dihydro-3-methylene- on MPTP in brain mitochondria was more accurately investigated by subjecting mitochondria isolated from rat forebrain to a series of Ca^2+ pulses (5 μM, ˜150 nmol mg protein^−1) and by monitoring extramitochondrial Ca^2+ or using fluororescent probes.

Data set [4] concerns the target T1, MPTP. In words: Ca2+-retention capacity of rat brain mitochondria (Calcium Green-5N). Conditions: 1 μM compound; 5 μM Ca2+ pulses; mean±SEM of 3; control 530±70. The protocol: FIG. 4: (A) Effect of Spiro[cyclopentane-1,5′-[5H]dibenzo[a,d]cyclohepten]-2-one,10′,11′-dihydro-3-methylene- and CsA on Ca^2+-retention capacity of rat brain mitochondria. The incubation medium contained 0.2 M sucrose, 10 mM Tris-Mops, pH 7.4, 1 mM Pi-Tris, 5 μM EGTA and 5 mM glutamate/2.5 mM malate, buffered to pH 7.4 with Tris, containing 0.01% (w/v) bovine serum albumin and 1 μM Calcium Green-5N. The final volume was 2.5 ml. Trace (a) control, (b) 1 μM CsA, (c) 1 μM Spiro[cyclopentane-1,5′-[5H]dibenzo[a,d]cyclohepten]-2-one,10′,11′-dihydro-3-methylene- and (d) 1 μM CsA plus 1 μM Spiro[cyclopentane-1,5′-[5H]dibenzo[a,d]cyclohepten]-2-one,10′,11′-dihydro-3-methylene-. Each fluorescence spike corresponds to addition of 5 μM Ca^2+. (B) Comparison of Ca^2+-retention capacity in liver (a) and brain mitochondria (b).
Effect of Spiro[cyclopentane-1,5′-[5H]dibenzo[a,d]cyclohepten]-2-one,10′,11′-dihydro-3-methylene- and CsA on Ca^2+-retention capacity of rat brain mitochondria (FIG. 4). Measurement of extramitochondrial Ca^2+ was determined using a Perkin-Elmer LS-50B fluorimeter controlled by the FL WinLab computer program. […] The final volume was 2.5 ml and the cuvette was thermostated at 25° C. Brain mitochondria were then subjected to a train of 5 μM Ca^2+ additions (˜150 nmol mg protein^−1). Extramitochondrial Ca^2+ was monitored at excitation/emission wavelengths of 505-535. […] The Ca^2+-retention capacity in liver (a) and brain mitochondria (b) were also compared (FIG. 4B).
as §1

Cyp-D, sequence (P30405 30-207): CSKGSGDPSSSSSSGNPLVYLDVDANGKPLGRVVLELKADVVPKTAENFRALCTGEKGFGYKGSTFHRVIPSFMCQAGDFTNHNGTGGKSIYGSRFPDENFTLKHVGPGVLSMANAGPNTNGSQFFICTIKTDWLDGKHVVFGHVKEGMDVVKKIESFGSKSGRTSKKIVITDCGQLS

In the case of `C=C1CCC2(C1=O)c1ccccc1CCc1ccccc12` [Spiro[cyclopentane-1,5′-[5H]dibenzo[a,d]cyclohepten]-2-one,10′,11′-dihydro-3-methylene-], the “Inhibition of MPTP induced by ATR” value in the data set with MPTP [1] (ATR 50 μM) is “inhibited”. For the same compound, in the data set with MPTP [1] (phenylarsineoxide 25 μM), the “Inhibition of MPTP induced by phenylarsineoxide” value was “inhibited”. Besides, the “Inhibition of mitochondrial respiration (basal, ADP-induced and uncoupled)” value in data set [2] is given as “did not inhibit”. Also, the “Inhibition of Cyp-D peptidyl prolyl cis-trans isomerase activity” value at Cyp-D was “did not inhibit”. The “Inhibition of swelling in brain mitochondria” value on MPTP [3] is “inhibited”. In addition, the “Ca2+-buffering capacity” value on MPTP [4] turned out to be 1200±120 nmol Ca^2+ mg protein^−1.

The values above are taken from patent US7642283B2, “Mitochrondrial permeability transition pore affinity labels and modulators” (Hoffmann-La Roche Inc., priority 2003, dated 2010).
